Measured values taken from US20060160095A1, “Survivin” (EiRx Therapeutics Limited, priority 2002, published 2006).

What was measured:
caspase-3 = experiment: Caspase-3 immunoblotting in neutrophils; type: cell-based, human; settings: neutrophils cultured with GM-CSF or G-CSF for 10 h
Experimental: Immunoblotting is carried out as described above using supernatants of cell lysates. Caspase-3 is detected using a polyclonal anti-caspase-3 antibody (1/1000; Becton Dickinson Pharmingen, Heidelberg, Germany))
Neutrophils (2.5×10^6) are cultured in the presence or absence of GM-CSF (50 ng/ml), G-CSF (25 ng/ml), 2-MOE modified antisense or mismatch survivin oligonucleotides at the indicated concentrations for 10 h, washed with cold PBS and subsequently lysed in 50 μl cell lysis buffer (50 mM HEPES, pH 7.4/0.1% Chaps/5 mM DTT/0.1 mM EDTA) using a Teflon glass homogenizer (VWR International, Ismaning, Germany) on ice for 10 min. After a 10-min centrifugation step at 10,000×g at 4° C., an aliquot of the supernatant is saved for caspase-3 immunoblotting and caspase 3-like activity is measured in 10 μl supernatants as enzymatic-conversion of the colorimetric substrate Ac-DEVD-pNA at 405 nm according to the manufacturer's instructions (QuantiZyme caspase 3 cellular activity assay kit, Biomol, Plymouth Meeting, Pa., USA).

[1] = tested on: Primary human neutrophils; experiment: MTT survival assay of neutrophils cultured with GM-CSF, with or without gliotoxin; type: cell-based; settings: various amounts of GM-CSF, 18 h culture
Experimental: Primary human neutrophils are isolated and purified from peripheral blood of normal healthy individuals. Neutrophils are resuspended in serum containing culture medium together with various amounts of GM-CSF at a density of 2×10^6/ml, with 100 μl plated into a 96 well plate and cultured for 18 h at 37° C. After this time 10 μl of MTT (5 mg/ml) is added to the cultures and incubated for a further 4 h at 37° C. before solubilisation of the purple coloured formazan with acidic isopropanol. Optical densities are read at 570 nm using a plate reader.
Primary human neutrophils are isolated and purified from peripheral blood of normal healthy individuals. Neutrophils are resuspended in serum containing culture medium containing 5 U/ml of GM-CSF at a concentration of 2×10^6/ml. […] After the indicated time, 10 μl of MTT (5 mg/ml) are added to the cultures and incubated for a further 4 h at 37° C. before solubilisation of the purple coloured formazan with acidic isopropanol. Optical densities are read at 570 nm using a plate reader.

survivin = experiment: Immunoblotting of survivin protein in neutrophils; type: cell-based, human; settings: cultured for 12 h in the presence of cytokine
Experimental: Neutrophils are cultured at 1×10^6 per ml in complete culture medium. GM-CSF (50 ng/ml; kind gift of T. Hartung, University of Konstanz, Konstanz, Germany) or G-CSF (25 ng/ml; PeproTech, BioConcept, Allschwil, Switzerland) are added. The duration of GM-CSF or G-CSF stimulation is indicated in each experiment.
Neutrophils (5×10^6) are washed with PBS, lysed with RIPA-buffer (0.5% sodium deoxycholate, 1% Nonidet P-40, 0.1% SDS in PBS) supplemented with a protease inhibitor-cocktail (Sigma) with frequent vortexing on ice for 40 min, including two freeze/thaw cycles using a methanol/dry ice bath. After a 10-min centrifugation to remove insoluble particles, equal amounts of the cell lysates are loaded on NuPage-Gels (Invitrogen Corp., Groningen, Netherlands). Separated proteins are electrotransferred onto polyvinylidene difluoride (PVDF) membranes (Immobilion-P, Millipore, Bedford, Mass.). The filters are incubated overnight with a polyclonal anti-survivin antibody (1/1000; R&D Systems, Abingdon, UK) at 4° C. in TBS/0.1% Tween-20/3% non-fat dry milk. Purified full-length recombinant human survivin (2 μl) is provided by R&D Systems as positive control for anti-survivin immunoblotting. For loading controls, stripped filters are incubated with a monoclonal anti-β-actin antibody (1/10,000; Sigma). Filters are washed in TBS/0.1% Tween-20 for 30 min and incubated with the appropriate HRP-conjugated secondary antibody (Amersham Pharmacia Biotech, Dübendorf, Switzerland) in TBS/0.1% Tween-20/5% non-fat dry milk for 1 h. Filters are developed by an ECL-technique (ECL-Kit, Amersham Pharmacia Biotech) according to the manufacturer's instructions.
The 20-mer first generation antisense oligonucleotide 4003 targeting the survivin mRNA has been described above. The second generation 2′-O-methoxy-ethoxy (2′-MOE) gapmer version of 4003 (as) and its 3-base mismatch sequence control (ms) are synthesized using an Applied Biosystems 394B automated DNA synthesizer as described (De Mesaeker et al. (1995) Acc. Chem. Res. 28, 366-374). Sequences are as follows: antisense survivin, cscscsasgsCsCsTsTsCsCsAsGsCsTscscststsg; mismatch survivin, cscstsasgsCsCsTsTsCsCsAsGsGsTscscstsasg. Small letters refer to 2′-O-(2-methoxy)-ethyl-modified nucleotides, capital letters to DNA, and “s” refers to phosphorothioate linkages. Cells isolated and cultured as described above are treated with survivin antisense oligonucleotides (as) or survivin mismatch control oligonucleotides (ms) at the indicated concentrations. In the experiments in which GM-CSF (50 ng/ml; kind gift of T. Hartung, University of Konstanz, Konstanz, Germany) or G-CSF (25 ng/ml; PeproTech, BioConcept, Allschwil, Switzerland) are added, the oligonucleotides are given 2 h before addition of cytokines.

## Granulocyte macrophage colony-stimulating factor [GM-CSF]
caspase-3
  caspase-3 proform and 17-kDa fragment levels with cytokine: maintain greater amounts of the caspase-3 proform
[1]
  neutrophil survival (MTT, optical density at 570 nm): direct correlation between survival and concentrations of GM-CSF
survivin
  Levels of survivin (immunoblot) in normal control neutrophils: increased
